Read-outs that look alike come from different tables or passages of the source.
Assays:
BPLER cells [1] = assay: Cell viability after drug treatment (CellTiterGlo / Trypan-Blue); assay type: cell-based, human; conditions: increasing doses, 24 hr
BPLER cells [2] = assay: qRT-PCR of TGS transcripts after TSA treatment; assay type: cell-based, human; conditions: 1 μM TSA, 24 hr
Experimental: (§1) The CMAP data predicted that TSA would suppress expression of 52 TGS transcripts by ≧1.8-fold (Table 6). We measured the change in expression of the top 11 of these transcripts in BPLER and HMLER cells treated with TSA.
(§2) qRT-PCR analysis was performed as described^41. Briefly, total RNA was extracted with TRIZOL (Invitrogen) and cDNA prepared from 600-900 ng total RNA using TH[…] kit (Invitrogen) as per the manufacturer's instructions. 2.5 ul of diluted cDNA (1:20) was used as template for qPCR using POWER SYBR-GREEN MASTER MIX (Applied Biosystems) and BIORAD C1000 THERMAL CYCLER (Biorad). Primer sequences are available upon request. Relative CT values were normalized to […]-actin and converted to a linear scale using the −ΔCT method.

HMLER cells = assay: qRT-PCR of TGS transcripts after TSA treatment; assay type: cell-based, human; conditions: 1 μM TSA, 24 hr
Experimental: as §1, §2

TGS transcripts = conditions: Instance ID 6709, cited from earlier work

For `CC(/C=C/C(=O)NO)=C\[C@@H](C)C(=O)c1ccc(N(C)C)cc1` [TSA, Trichostatin A], the “sensitivity of BPLER relative to HMLER cells (viability)” value (BPLER cells [1]) was “selectively lethal for BPLER compared to HMLER”, the “expression of the top 11 predicted TGS transcripts” value (BPLER cells [2]) was “significantly decreased” and the “expression of the top 11 predicted TGS transcripts” value (HMLER cells) was “All but two of these also had significantly reduced expression”. The BPE viability (BPE cells; at the indicated dose) was “no effect on BPE viability”, the “combination with bortezomib: cytotoxicity in untransformed BPE cells” value (BPE cells; in vitro) was “not cytotoxic” and the Amplitude (TGS transcripts; BUB1, probe set 215509_s_at) was −0.84. The Amplitude (TGS transcripts; C7orf25 /// PSMA2, probe set 221573_at) was −0.7, the Amplitude (TGS transcripts; C12orf10, probe set 218220_at) was −0.5 and the Amplitude (TGS transcripts; C19orf29, probe set 215954_s_at) was −0.49. The Amplitude (TGS transcripts; CANX, probe set 208852_s_at) was −0.55, the Amplitude (TGS transcripts; CANX, probe set 208853_s_at) was −0.81 and the Amplitude (TGS transcripts; CCNA2, probe set 203418_at) was −0.83. The Amplitude (TGS transcripts; CCNA2, probe set 213226_at) was −0.63, the Amplitude (TGS transcripts; CDC5L, probe set 209055_s_at) was −1.19 and the Amplitude (TGS transcripts; CDK13, probe set 207318_s_at) was −0.87. The Amplitude (TGS transcripts; CDK13, probe set 207319_s_at) was −0.79, the Amplitude (TGS transcripts; CDK17, probe set 206474_at) was −0.74 and the Amplitude (TGS transcripts; CDK17, probe set 221918_at) was −0.66. The Amplitude (TGS transcripts; DDX19A /// DDX19B, probe set 202576_s_at) was −0.73, the Amplitude (TGS transcripts; DHX8, probe set 203334_at) was −0.45 and the Amplitude (TGS transcripts; DNAJC11, probe set 215792_s_at) was −0.47. For the same compound, the Amplitude (TGS transcripts; DYSF, probe set 218660_at) was −0.43, the Amplitude (TGS transcripts; FYCO1, probe set 218204_s_at) was −0.5 and the Amplitude (TGS transcripts; GAPDH, probe set AFFX-HUMGAPDH/M33197_5_at) was −1.17. The Amplitude (TGS transcripts; GAPDH, probe set AFFX-HUMGAPDH/M33197_M_at) was −0.62, the Amplitude (TGS transcripts; HIPK3, probe set 210148_at) was −0.46 and the Amplitude (TGS transcripts; LSM2, probe set 209449_at) was −0.44. For the same compound, the Amplitude (TGS transcripts; MCL1, probe set 200796_s_at) was −1.46, the Amplitude (TGS transcripts; MFSD5, probe set 212861_at) was −0.77 and the Amplitude (TGS transcripts; MGAT2, probe set 203101_s_at) was −0.67. For the same compound, the Amplitude (TGS transcripts; MTA2, probe set 203444_s_at) was −0.74, the Amplitude (TGS transcripts; NAA38, probe set 219119_at) was −0.47 and the Amplitude (TGS transcripts; NDC80, probe set 204162_at) was −1.07. For the same compound, the Amplitude (TGS transcripts; NME3, probe set 204862_s_at) was −0.6, the Amplitude (TGS transcripts; NUP205, probe set 212247_at) was −0.65 and the Amplitude (TGS transcripts; PDCD4, probe set 202731_at) was −1.07. For the same compound, the Amplitude (TGS transcripts; PFKL, probe set 201102_s_at) was −0.67, the Amplitude (TGS transcripts; POLR2F, probe set 209511_at) was −0.43 and the Amplitude (TGS transcripts; PRC1, probe set 218009_s_at) was −0.67. For the same compound, the Amplitude (TGS transcripts; PSMA1, probe set 201676_x_at) was −0.4, the Amplitude (TGS transcripts; PSMA1, probe set 210759_s_at) was −0.74 and the Amplitude (TGS transcripts; PSMA1, probe set 211746_x_at) was −0.45. The Amplitude (TGS transcripts; PSMA2, probe set 201317_s_at) was −0.41, the Amplitude (TGS transcripts; PSMA3, probe set 201532_at) was −0.63 and the Amplitude (TGS transcripts; PSMB4, probe set 202243_s_at) was −0.43. For the same compound, the Amplitude (TGS transcripts; PSMC1, probe set 204219_s_at) was −0.53, the Amplitude (TGS transcripts; PSMC3, probe set 201267_s_at) was −1.66 and the Amplitude (TGS transcripts; PSMD7, probe set 201705_at) was −1.01. The Amplitude (TGS transcripts; RAN, probe set 200750_s_at) was −0.48, the Amplitude (TGS transcripts; RBM22, probe set 218134_s_at) was −0.75 and the Amplitude (TGS transcripts; RBMX, probe set 213762_x_at) was −0.58. The Amplitude (TGS transcripts; SCD, probe set 211162_x_at) was −0.92, the Amplitude (TGS transcripts; SCD, probe set 211708_s_at) was −0.83 and the Amplitude (TGS transcripts; SH3GL3, probe set 211565_at) was −0.64. The Amplitude (TGS transcripts; SNW1, probe set 215424_s_at) was −1.16, the Amplitude (TGS transcripts; TMED3, probe set 208837_at) was −0.42 and the Amplitude (TGS transcripts; TMEM14B, probe set 221452_s_at) was −0.48. For the same compound, the Amplitude (TGS transcripts; TNPO1, probe set 207657_x_at) was −0.42, the Amplitude (TGS transcripts; TNPO1, probe set 209226_s_at) was −0.68 and the Amplitude (TGS transcripts; USP39, probe set 217829_s_at) was −0.56. For the same compound, the Amplitude (TGS transcripts; probe set 200749_at (gene symbol —)) was −0.5.

From patent US9689040B2, “Selective inhibitors of tumor-initiating cells” (Children's Medical Center Corporation, priority 2011, dated 2017)
